Test results reported in PubChem BioAssay (NCI).
Where “and” joins values, the source holds several entries; their conditions need not be identical. Equal entries are not always repeated.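 Growth conditions: 96-well plates. Treatment: test compound, 48 hours, 5 concentrations. Analysis: linear interpolation between bracketing concentrations; unreached endpoints set to highest concentration. Here, GI50 denotes the concentration required for 50% inhibition of growth. TGI marks complete inhibition of growth.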

Tests used:
Test in all cases: NCI tumour cell line growth inhibition, 48 h
ACHN renal = tested on: ACHN renal
786-0 renal = tested on: 786-0 renal
HOP-92 NSCLC = tested on: HOP-92 NSCLC
SW-620 colon = tested on: SW-620 colon
HS 578T breast = tested on: HS 578T breast
UACC-62 melanoma = tested on: UACC-62 melanoma
HL-60(TB) leukemia = tested on: HL-60(TB) leukemia
HT29 colon = tested on: HT29 colon
SK-MEL-28 melanoma = tested on: SK-MEL-28 melanoma
NCI-H460 lung = tested on: NCI-H460 lung

Row | SMILES | GI50 (ACHN renal) | TGI (ACHN renal) | GI50 (786-0 renal) | TGI (786-0 renal) | GI50 (HOP-92 NSCLC) | TGI (HOP-92 NSCLC) | GI50 (SW-620 colon) | TGI (SW-620 colon) | GI50 (HS 578T breast) | TGI (HS 578T breast) | GI50 (UACC-62 melanoma) | TGI (UACC-62 melanoma) | GI50 (HL-60(TB) leukemia) | TGI (HL-60(TB) leukemia) | GI50 (HT29 colon) | TGI (HT29 colon) | GI50 (SK-MEL-28 melanoma) | TGI (SK-MEL-28 melanoma) | GI50 (NCI-H460 lung) | TGI (NCI-H460 lung)
1 | C#C[C@]1(O)CC[C@H]2[C@@H]3CC=C4c5sc(Nc6cc(F)ccc6F)nc5CC[C@]4(C)[C@H]3CC[C@@]21C | 1.44 µM | 2.9 µM | 0.415 µM | 1.84 µM | 2.06 µM | 5.49 µM | 1.78 µM | 4.38 µM | 0.424 µM | 7.13 µM | 1.74 µM | 3.75 µM | 2.54 µM | 7.96 µM | 2.24 µM | 8.5 µM | 1.09 µM | 2.34 µM | 1.95 µM | 4.14 µM
2 | COc1ccc([C@H](CC(=O)O)N2CCN(CCCc3ccc4c(n3)NCCC4)C2=O)cn1 | > 52 µM | > 100 µM | 0.346 µM | > 100 µM | 0.0348 µM | 0.159 µM |  | > 100 µM | 7.15 µM | > 100 µM | > 100 µM | > 100 µM | > 100 µM | > 100 µM | 0.794 µM | > 100 µM | > 28.7 µM | > 100 µM | 4.36 µM | > 100 µM
3 | OC1(c2ccccc2)C2CC=CC2C1(c1ccccc1)c1ccccc1 (stereo not given) |  | > 100 µM |  | > 100 µM |  | > 100 µM |  | > 100 µM |  | > 100 µM |  | > 100 µM |  | 95.7 µM |  | 69.8 µM |  | > 100 µM |  | > 100 µM
4 | COC(=O)c1cc(-c2ccccc2)[nH]c1N/N=C/c1c(Cl)cccc1Cl | 0.858 µM | 26.4 µM | 0.41 µM | 8.39 µM | 0.609 µM | 17.5 µM | 0.279 µM | > 38.8 µM | 0.221 µM | 3.5 µM | 0.278 µM | 9 µM | 0.289 µM |  | 0.35 µM |  | 0.535 µM | 17.4 µM | 0.319 µM | 1.25 µM
5 | Nc1ccn(C2CC(F)C(CO)O2)c(=O)n1 (stereo not given) | > 100 µM | > 100 µM | > 100 µM | > 100 µM | > 100 µM | > 100 µM |  |  | > 100 µM | > 100 µM | > 100 µM | > 100 µM | > 100 µM | > 100 µM | > 100 µM | > 100 µM | > 100 µM | > 100 µM | > 100 µM | > 100 µM
6 | O=C(O)C[C@H](O)C[C@H](O)/C=C/c1c(C2CC2)nc2ccccc2c1-c1ccc(F)cc1 |  |  | 21.6 µM and 2.86 µM | > 100 µM |  | 0.227 µM and 0.0622 µM | 18.6 µM and 4.92 µM | > 100 µM | 6.45 µM and 2.1 µM | > 100 µM | 2.3 µM and 0.45 µM | > 100 µM | 4.55 µM and 25.6 µM | > 100 µM | 62.2 µM and 8.24 µM | > 100 µM | 27.4 µM and 7.7 µM | > 100 µM | 21.2 µM and 4.92 µM | > 100 µM
7 | COc1ccccc1/C=C1\COc2ccc(-c3ccccc3)cc2C1=O | 3.86 µM | 26 µM | 4.31 µM | > 100 µM | 4.18 µM | > 100 µM | 2.39 µM | 5.6 µM | 2.75 µM | 7.29 µM | 4.39 µM | 45.2 µM | 1.86 µM | > 100 µM |  |  | 3.61 µM | 13.3 µM | 2.1 µM | 4.62 µM
